According to ChEMBL document CHEMBL1156705, “Part 1: Effect of vitamin C on the biological activity of two euryfurylbenzoquinones on TLT, a murine hepatoma cell line” (2008):

What was measured:
Type in all cases: functional
[1] = Cytotoxicity against mouse TLT cells assessed as cytoplasmic LDH release at 50 ug/ml after 24 hrs
[2] = Cytotoxicity against mouse TLT cells assessed as cytoplasmic LDH release at 50 ug/ml after 24 hrs in presence of 2 mM vitamin C
[3] = Cytotoxicity against mouse TLT cells assessed as decrease in intracellular ATP level at 1 to 50 ug/ml after 24 hrs by bioluminescence assay relative to control; set-up: scale not given: the % may be the effect or the level left
[4] = Cytotoxicity against mouse TLT cells assessed as decrease in intracellular ATP level at 1 to 50 ug/ml after 24 hrs by bioluminescence assay relative to control in presence of 2 mM vitamin C; set-up: scale not given: the % may be the effect or the level left
[5] = Cytotoxicity against mouse TLT cells assessed as decrease in intracellular reduced glutathione level at 1 to 50 ug/ml after 24 hrs by ortho-phthalaldehyde method relative to control; set-up: scale not given: the % may be the effect or the level left
[6] = Cytotoxicity against mouse TLT cells assessed as decrease in intracellular reduced glutathione level at 1 to 50 ug/ml after 24 hrs by ortho-phthalaldehyde method relative to control in presence of 2 mM vitamin C; set-up: scale not given: the % may be the effect or the level left
[7] = Induction of apoptosis in mouse TLT cells assessed as effect on caspase 3 activity at 1 ug/ml after 24 hrs by fluorometric assay
[8] = Induction of apoptosis in mouse TLT cells assessed as effect on caspase 3 activity at 1 ug/ml after 24 hrs by fluorometric assay in presence of 2 mM vitamin C
[9] = Induction of apoptosis in mouse TLT cells assessed as effect on caspase 3 activity at 50 ug/ml after 24 hrs by fluorometric assay
[10] = Induction of apoptosis in mouse TLT cells assessed as effect on caspase 3 activity at 50 ug/ml after 24 hrs by fluorometric assay in presence of 2 mM vitamin C
[11] = Induction of apoptosis in mouse TLT cells assessed as effect on caspase 3 activity at 100 ug/ml after 24 hrs by fluorometric assay
[12] = Induction of apoptosis in mouse TLT cells assessed as effect on caspase 3 activity at 100 ug/ml after 24 hrs by fluorometric assay in presence of 2 mM vitamin C
[13] = Induction of apoptosis in mouse TLT cells assessed as increase in caspase 3 activity at 50 ug/ml after 24 hrs by fluorometric assay relative to basal level in presence of 2 mM vitamin C
[14] = Induction of apoptosis in mouse TLT cells assessed as increase in caspase 3 activity at 50 ug/ml after 24 hrs by fluorometric assay relative to basal level
[15] = Cytotoxicity against mouse TLT cells assessed as cytoplasmic LDH release at 1 ug/ml after 24 hrs
[16] = Cytotoxicity against mouse TLT cells assessed as decrease in intracellular ATP level at 50 ug/ml after 24 hrs by bioluminescence assay relative to control in presence of 2 mM vitamin C; set-up: scale not given: the % may be the effect or the level left
[17] = Cytotoxicity against mouse TLT cells assessed as decrease in intracellular reduced glutathione level at 50 ug/ml after 24 hrs by ortho-phthalaldehyde method relative to control in presence of 2 mM vitamin C; set-up: scale not given: the % may be the effect or the level left

SMILES | Activity [1] [%] | Activity [2] [%] | Activity [3] [%] | Activity [4] [%] | Activity [5] [%] | Activity [6] [%] | Activity [7] [mU] | Activity [8] [mU] | Activity [9] [mU] | Activity [10] [mU] | Activity [11] [mU] | Activity [12] [mU] | Activity [13] | Activity [14] | Activity [15] [%] | Activity [16] [%] | Activity [17] [%]
CC1(C)CCCC2(C)c3coc(C4=CC(=O)C=CC4=O)c3CCC12 (centres undefined) | 28 | 28 | 40 | 40 | 60 | 60 | 21.3 | 15.1 | 37.2 | 25.6 | 51.1 | 57.8 | 3.5 | 2.5 |  |  | 
CC1(C)CCCC2(C)c3coc(C4=C([N+](=O)[O-])C(=O)C=CC4=O)c3CCC12 (centres undefined) |  | 60 |  |  |  |  | 31.9 | 12.8 | 27.4 | 10.7 | 22.5 | 1 |  |  | 28 | 50 | 25
